# Test system: T. cruzi trypomastigotes
# Assay: T. cruzi viability, resazurin reduction
# Format: cell-based, Trypanosoma cruzi
# Settings: Trypanosoma cruzi, 2.5 µM; read-out: viability, T.cruzi (2.5 µM)
# Method: T. cruzi (Y strain) trypomastigotes were passaged in liver infusion broth media supplemented with tryptose, NaCl, Na2HPO4, KCl, glucose, hemin, Pen-Strep (1%), 10% FCS (pH: 7.2) and kept at 28°C.
# (§1) Viability of T. brucei brucei BSF and T. cruzi trypomastigotes was assayed with fluorescence resazurin reduction assay, essentially as described above. […] Next, selected compounds were tested at 2.5 μM concentration, and promising compounds subjected to 18 concentrations dose response analyses. AN3057 and AmB were used as a control drug in T. brucei and T. cruzi, respectively.
row,SMILES,viability at 2.5 µM [%]
1,"N[C@@H](Cc1ccccc1)[C@@H](O)CNc1ccc(F)cc1F [LTC-1032, (2S,3S)-3-Amino-1-((2,4-difluorophenyl)amino)-4-phenylbutan-2-ol]",59.8 ± 1.24

# Same assay, conditions: Trypanosoma cruzi, 25 µM; read-out: viability, T.cruzi (25 µM)
row,SMILES,viability at 25 µM [%]
1,"N[C@@H](Cc1ccccc1)[C@@H](O)CNc1ccc(F)cc1F [LTC-1032, (2S,3S)-3-Amino-1-((2,4-difluorophenyl)amino)-4-phenylbutan-2-ol]",29 ± 1.22

# Test system: L. major axenic amastigotes
# Assay: L. major axenic amastigote viability, resazurin reduction
# Settings: Leishmania major, read-out: viability, L.major amastigote (25 µM)
# Method: L. major LV561(MHOM/IL/67/LRC-L137 JERICHO II) amastigotes were passaged in Grace insect medium supplemented with NaHCO3, 0.1% amikin and 20% of FCS (pH: 5.4) and kept at 33°C.
# Exponential growth phase promastigotes of L. major or L. infantum and axenic amastigotes (L. major) were harvested and seeded in 384 well plates (white, non-transparent, tissue culture treated, flat bottom; Corning) (0.5x10^5 cells per well). Compounds were pre-dispensed into the plate with an Echo 650 acoustic dispenser (Beckman Coulter). After 72h incubation, resazurin was added (1:10 v/v) from a […] stock in PBS, followed by incubation for six hours. Then, fluorescence intensity was measured using a microplate reader (Synergy H1, BioTek) with excitation filter: 550 nm and emission filter: 590 nm. Efficient compounds were selected for the next round of viability assay with 2.5 μM concentrations of the compounds. […] All experiments were performed with AmB as a positive control drug in parallel.
# Axenic amastigotes, the relevant form that persists in the infected host, were generated in the lab through established procedures, employing harsh pH (pH 5) and high temperature (33°C) conditions.
row,SMILES,viability at 25 µM [%]
1,"N[C@@H](Cc1ccccc1)[C@@H](O)CNc1ccc(F)cc1F [LTC-1032, (2S,3S)-3-Amino-1-((2,4-difluorophenyl)amino)-4-phenylbutan-2-ol]",76 ± 0.96

# Test system: E. histolytica
# Assay: E. histolytica viability, ATP luminescence (Cell titer glo)
# Format: cell-based, Entamoeba histolytica
# Settings: Entamoeba histolytica; read-out: viability, E.histolytica (2.5 µM)
# Method: Entamoeba histolytica (strain B2-5) was passaged in TY-1 medium (Trypticase peptone BBL, Yeast extract BBL, glucose, NaCl, K2HPO4, KH2PO4, cysteine, ascorbic acid, ammonium iron citrate, adult bovine serum, Diamond tween 80, penicillin G, amikacin (pH:6.8)) and kept in 37°C incubator in completely filled tubes with closed lid.
# Viability of E. histolytica was assayed via a luminescence assay based on ATP quantification in the live cells. Briefly, 2.5x10^4 cell/ml were exposed to 25 μM of compounds in 96 well plates (non-transparent, tissue culture treated, flat bottom; SPL Life Sciences) in triplicate for 48h. Plates were incubated in sealed anaerobic bags (Oxoid AGS) together with an Anaerogen compact bag (Thermo Scientific) and anaerobic indicator (Thermo Scientific) at 37°C. Then, Cell titer glo reagent (Promega) was added to the reaction (1:5) according to manufacturers’ instruction. After 15 min of orbital shaking, followed by 10 min incubation at RT, ATP-bioluminescence was quantified at RT using a Synergy H1 plate reader (Synergy H1, BioTek). Metronidazole was included as control drug in all the assays for E. histolytica. Test compounds indicating significant growth reduction in the primary screen were subjected to potency determination. These secondary screens were essentially carried out as detailed above, but with a 9 to 16-point concentration range of the test compounds spanning 0.01–100 μM.
row,SMILES,viability at 2.5 µM [%]
1,"N[C@@H](Cc1ccccc1)[C@@H](O)CNc1ccc(F)cc1F [LTC-1032, (2S,3S)-3-Amino-1-((2,4-difluorophenyl)amino)-4-phenylbutan-2-ol]",56.3 ± 3.32

# Same assay, conditions: Entamoeba histolytica; read-out: viability, E.histolytica (25 µM)
row,SMILES,viability at 25 µM [%]
1,"N[C@@H](Cc1ccccc1)[C@@H](O)CNc1ccc(F)cc1F [LTC-1032, (2S,3S)-3-Amino-1-((2,4-difluorophenyl)amino)-4-phenylbutan-2-ol]",118 ± 17.6

# Test system: L. infantum promastigotes
# Assay: L. infantum promastigote viability, resazurin reduction
# Format: cell-based, Leishmania infantum
# Settings: Leishmania infantum; 2.5 µM; sheet LTC_compound_viability; value ± spread; read-out: viability, L. infantum promastigote (2.5 µM)
# From the text: (§2) The infectivity of the parasites was boosted by passaging in Balb/c mice and culturing the infected lymph nodes after six weeks. L. infantum (MHOM / BR / 76 / M4192) parasite was passaged in the same media formulation with 0.5% urine.
row,SMILES,viability at 2.5 µM [%]
1,"N[C@@H](Cc1ccccc1)[C@@H](O)CNc1ccc(F)cc1F [LTC-1032, (2S,3S)-3-Amino-1-((2,4-difluorophenyl)amino)-4-phenylbutan-2-ol]",84.1 ± 3.01

# Same assay, conditions: Leishmania infantum; 25 µM; sheet LTC_compound_viability; value ± spread; read-out: viability, L. infantum promastigote (25 µM)
row,SMILES,viability at 25 µM [%]
1,"N[C@@H](Cc1ccccc1)[C@@H](O)CNc1ccc(F)cc1F [LTC-1032, (2S,3S)-3-Amino-1-((2,4-difluorophenyl)amino)-4-phenylbutan-2-ol]",9.17 ± 0.49

# Test system: T. brucei brucei BSF
# Assay: T. brucei BSF viability, resazurin reduction
# Format: cell-based, Trypanosoma brucei brucei
# Settings: Trypanosoma brucei, 2.5 µM; read-out: viability, T.brucei (2.5 µM)
# Method: T. brucei brucei (strain 427 Lister) blood stream form (BSF) parasites were passaged in complete HMI-9 media supplemented with 10% FCS, Pen-Strep (0.1%) and 2-mercaptoethanol (0.014 v/v) and kept in a 37° C CO2 incubator in filter-cap flasks.
# as §1
row,SMILES,viability at 2.5 µM [%]
1,"N[C@@H](Cc1ccccc1)[C@@H](O)CNc1ccc(F)cc1F [LTC-1032, (2S,3S)-3-Amino-1-((2,4-difluorophenyl)amino)-4-phenylbutan-2-ol]",-0.94 ± 0.33

# Same assay, conditions: Trypanosoma brucei, 25 µM; read-out: viability, T.brucei (25 µM)
row,SMILES,viability at 25 µM [%]
1,"N[C@@H](Cc1ccccc1)[C@@H](O)CNc1ccc(F)cc1F [LTC-1032, (2S,3S)-3-Amino-1-((2,4-difluorophenyl)amino)-4-phenylbutan-2-ol]",2.18 ± 0.88

# Same assay, conditions: Trypanosoma brucei, 72 h, read-out: Residual viability, T.brucei (2.5 µM), BSF, 2.5 µM, 72 h
row,SMILES,viability at 2.5 µM [%]
1,"N[C@@H](Cc1ccccc1)[C@@H](O)CNc1ccc(F)cc1F [LTC-1032, (2S,3S)-3-Amino-1-((2,4-difluorophenyl)amino)-4-phenylbutan-2-ol]",< 10

# Test system: intracellular L. infantum amastigotes
# Assay: Parasite rescue assay (intramacrophage, J774 infected with L. infantum)
# Format: cell-based, Leishmania infantum
# Settings: J774, 25 µM; intracellular amastigote; read-out: viability, intracellular L. major amastigote (25 µM)
row,SMILES,viability at 25 µM [%]
1,"N[C@@H](Cc1ccccc1)[C@@H](O)CNc1ccc(F)cc1F [LTC-1032, (2S,3S)-3-Amino-1-((2,4-difluorophenyl)amino)-4-phenylbutan-2-ol]",73 ± 5.58

# Test system: not listed separately
# Assay: Cytotoxicity assay J774, resazurin reduction
# Format: cell-based, murine
# Settings: mouse, J774 macrophage cells; 2.5 µM; read-out: viability, J774 (2.5 µM)
# Method: Mammalian cell lines (J774 and HepG2) were passaged in RPMI media supplemented with MEM, Pen-Strep (1%) and 10% FCS. Cultures were kept at 37°C incubator with 5% CO2 in filter-cap flasks.
# Murine macrophage cells (J774) and human hepatocyte carcinoma HepG2 cells were seeded at 0.5x10^5 cell/well in 384 well plates in triplicate, exposed to serial dilution of compounds, dispensed using an Echo 650 acoustic dispenser (Labcyte). After incubation for 72 h at 37°C, 5% CO2, cell viability was determined using fluorescence resazurin reduction assay (λEx: 550 nm; λEm: 590 nm).
row,SMILES,"viability at 72 h, 2.5 µM [%]"
1,"N[C@@H](Cc1ccccc1)[C@@H](O)CNc1ccc(F)cc1F [LTC-1032, (2S,3S)-3-Amino-1-((2,4-difluorophenyl)amino)-4-phenylbutan-2-ol]",96.3 ± 3.07

# Same assay, conditions: mouse, J774 macrophage cells; 25 µM; read-out: viability, J774 (25 µM)
row,SMILES,"viability at 72 h, 25 µM [%]"
1,"N[C@@H](Cc1ccccc1)[C@@H](O)CNc1ccc(F)cc1F [LTC-1032, (2S,3S)-3-Amino-1-((2,4-difluorophenyl)amino)-4-phenylbutan-2-ol]",96.6 ± 11.9

# Test system: L. major promastigotes
# Assay: L. major promastigote viability, resazurin reduction
# Format: cell-based, Leishmania major
# Settings: Leishmania major, 72 h, read-out: viability, L.major promastigote (25 µM)
# From the text: as §2
row,SMILES,viability at 25 µM [%]
1,"N[C@@H](Cc1ccccc1)[C@@H](O)CNc1ccc(F)cc1F [LTC-1032, (2S,3S)-3-Amino-1-((2,4-difluorophenyl)amino)-4-phenylbutan-2-ol]",86.3 ± 2.23

# Same assay, conditions: Leishmania major; 25 µM; read-out: viability, L.major promastigote (25 µM)
row,SMILES,viability at 25 µM [%]
1,"N[C@@H](Cc1ccccc1)[C@@H](O)CNc1ccc(F)cc1F [LTC-1032, (2S,3S)-3-Amino-1-((2,4-difluorophenyl)amino)-4-phenylbutan-2-ol]",0.57 ± 0.34

# Test system: not given
# Assay: not given
# Settings: not given
row,SMILES,melting point [°C]
1,"N[C@@H](Cc1ccccc1)[C@@H](O)CNc1ccc(F)cc1F [LTC-1032, (2S,3S)-3-Amino-1-((2,4-difluorophenyl)amino)-4-phenylbutan-2-ol]",89 to 91

# — publication PMC10994559 (PLOS Neglected Tropical Diseases, 2024)
